Experimental data taken from patent publication US7632829B2, “Diazepan derivatives” (Hoffmann-La Roche Inc., priority 2006, dated 2009).
pIC50: −log10 of the molar value.

Target: T1, human chemokine receptor 2 isoform B (Homo sapiens, UniProt P41597)
T1 construct: host or cells: CHOK1-CCR2B-A5 (CHO-K1)
T1 sequence (P41597 1-360 isoform P41597-2): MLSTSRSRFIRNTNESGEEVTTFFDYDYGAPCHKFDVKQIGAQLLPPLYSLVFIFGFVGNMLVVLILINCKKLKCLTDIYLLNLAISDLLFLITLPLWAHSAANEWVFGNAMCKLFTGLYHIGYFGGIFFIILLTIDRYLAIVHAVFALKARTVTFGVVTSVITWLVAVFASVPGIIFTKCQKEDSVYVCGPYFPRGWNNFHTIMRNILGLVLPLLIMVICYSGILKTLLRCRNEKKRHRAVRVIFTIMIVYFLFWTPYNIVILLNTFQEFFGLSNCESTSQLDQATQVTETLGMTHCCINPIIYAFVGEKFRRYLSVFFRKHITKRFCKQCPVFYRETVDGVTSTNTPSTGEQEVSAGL
Experiment: Calcium mobilization assay (FLIPR, CHOK1-CCR2B-A5 cells, 20 nM MCP-1)
Assay type: cell-based
Details: Ca mobilisation assay, CCR2, antagonist activity vs 20 nM MCP-1
Protocol: CHOK1-CCR2B-A5 cells (from Euroscreen) stably overexpressing the human chemokine receptor 2 isoform B were cultured in Nutrient Hams F12 medium supplemented with 5% FBS, 100 U/ml penicillin, 100 μg/ml streptomycin, 400 μg/ml G418 and 5 μg/ml puromycin.
For the assay cells were grown overnight in 384-well black clear flat bottom polystyrene plates (Costar) at 37° C. at 5% CO2. After washing with DMEM, 20 mM Hepes, 2.5 mM probenecid, 0.1% BSA (DMEM assay buffer) cells were loaded with 4 μM Fluo-4 in the same DMEM assay buffer for 2 hours at 30° C. Excess dye was removed and cells were washed with DMEM assay buffer. 384-well compound plates were prepared with DMEM assay buffer/0.5% DMSO with or without various concentrations of test compounds. Usually compounds were tested for agonist and antagonist activity.
Test compounds were added to the assay plate and agonist activity was monitored as fluorescence for 80 seconds with a FLIPR (488 nm excitation; 510-570 nm emission; Molecular Devices). After 20-30 min. of incubation at 30° C., 20 nM MCP-1 (R&D; Roche) was added and fluorescence was monitored again for 80 seconds. Increases in intracellular calcium are reported as maximum fluorescence after agonist exposure minus basal fluorescence before exposure. Antagonist activity is indicated as inhibitor concentration required for 50% inhibition of specific calcium increases.

Row | Compound | pIC50
1 | (rac)-1-[(E)-3-(3,4-Dichloro-phenyl)-acryloyl]-4-[4-(3-hydroxy-5-methoxymethyl-piperidin-1-yl)-butyl]-[1,4]diazepan-5-one [Example 490] | 7.59
2 | COCC1CC(OC)C(O)CN1CCCCN1CCN(C(=O)/C=C/c2ccc(Cl)c(Cl)c2)CCC1=O (racemic) [Example 478] | 6.00
3 | O=C(/C=C/c1ccc(Cl)c(Cl)c1)N1CCC(=O)N(CCCN2CCOCC2)CC1 [Example 6, 1-[(E)-3-(3,4-Dichloro-phenyl)-acryloyl]-4-(3-morpholin-4-yl-propyl)-[1,4]diazepan-5-one] | 5.88
4 | CN(CCO)CC(O)CN1CCN(C(=O)/C=C/c2ccc(Cl)c(Cl)c2)CCC1=O (racemic) [Example 320] | 5.83
5 | O=C(/C=C/c1ccc(F)c(Cl)c1)N1CCC(=O)N(CCCCN2CC[C@H](O)[C@H](F)C2)CC1 (racemic) [Example 390] | 5.96
6 | C[C@@H]1CCN(CC(O)CN2CCN(C(=O)/C=C/c3ccc(Cl)c(Cl)c3)CCC2=O)C[C@H]1O (mixture of isomers) [Example 315, (rac)-1-[(E)-3-(3,4-Dichloro-phenyl)-acryloyl]-4-[2-hydroxy-3-(trans-3-hydroxy-4-methyl-piperidin-1-yl)-propyl]-[1,4]diazepan-5-one] | 6.14
7 | CN(CCCN1CCN(C(=O)/C=C/c2ccc(Cl)c(Cl)c2)CCC1=O)C1CCOCC1 [Example 78, 1-[(E)-3-(3,4-Dichloro-phenyl)-acryloyl]-4-{3-[methyl-(tetrahydro-pyran-4-yl)-amino]-propyl}-[1,4]diazepan-5-one] | 6.35
8 | O=C(/C=C/c1ccc(F)c(Cl)c1)N1CCC(=O)N(CCCN2CCCCC2CO)CC1 (racemic) [Example 210] | 5.94
9 | COCC1CCC(O)CN1CCCCN1CCN(C(=O)/C=C/c2ccc(Cl)c(F)c2)CCC1=O (racemic) [Example 418] | 5.83
10 | C[C@@H]1CN(CC(O)CN2CCN(C(=O)/C=C/c3ccc(Cl)c(Cl)c3)CCC2=O)CC[C@H]1O (mixture of isomers) [Example 316, (rac)-1-[(E)-3-(3,4-Dichloro-phenyl)-acryloyl]-4-[2-hydroxy-3-(trans-4-hydroxy-3-methyl-piperidin-1-yl)-propyl]-[1,4]diazepan-5-one] | 6.12
11 | CNC(=O)C1CCN(CCCN2CCN(C(=O)/C=C/c3ccc(Cl)c(Cl)c3)CCC2=O)CC1 [Example 86, 1-(3-{4-[(E)-3-(3,4-Dichloro-phenyl)-acryloyl]-7-oxo-[1,4]diazepan-1-yl}-propyl)-piperidine-4-carboxylic acid methylamide] | 5.96
12 | O=C(/C=C/c1ccc(Cl)c(F)c1)N1CCC(=O)N(CCCN2CCCCC2)CC1 [Example 13, 1-[(E)-3-(4-Chloro-3-fluoro-phenyl)-acryloyl]-4-(3-piperidin-1-yl-propyl)-[1,4]diazepan-5-one] | 6.14
13 | CCN(CC)C1CCN(CCN2CCN(C(=O)/C=C/c3ccc(Cl)c(Cl)c3)CCC2=O)C1 (racemic) [Example 347] | 6.06
14 | O=C(/C=C/c1ccc(Cl)c(Cl)c1)N1CCC(=O)N(CCC(O)CN2CCCC(CO)C2)CC1 (racemic) [Example 378] | 5.91
15 | O=C(O)C(CCCN1CCCCC1)N1CCN(C(=O)/C=C/c2ccc(Cl)c(Cl)c2)CCC1=O (racemic) [Example 180, Lithium; (rac)-2-{4-[(E)-3-(3,4-dichloro-phenyl)-acryloyl]-7-oxo-[1,4]diazepan-1-yl}-5-piperidin-1-yl-pentanoate] | 6.50
16 | O=C(/C=C/c1ccc(F)c(Cl)c1)N1CCC(=O)N(CCCN2CCC(CO)CC2)CC1 [Example 212] | 6.36
17 | O=C(/C=C/c1ccc(F)c(Cl)c1)N1CCC(=O)N(CCCCN2CCN(C3CC3)CC2)CC1 [Example 397] | 6.03
18 | CC(C)N1CCN(CC(O)CN2CCN(C(=O)/C=C/c3ccc(Cl)c(Cl)c3)CCC2=O)CC1 (racemic) [Example 296] | 6.53
19 | CC(=O)NC1CCN(CCCN2CCN(C(=O)/C=C/c3ccc(Cl)c(Cl)c3)CCC2=O)C1 (racemic) [Example 44, (+/−)-N-[1-(E)-(3-{4-[3-(3,4-Dichloro-phenyl)-acryloyl]-7-oxo-[1,4]diazepan-1-yl}-propyl)-pyrrolidin-3-yl]-acetamide] | 6.19
20 | O=C(/C=C/c1ccc(Cl)c(Cl)c1)N1CCC(=O)N(CCCN2CCS(=O)(=O)CC2)CC1 [Example 40, 1-[(E)-3-(3,4-Dichloro-phenyl)-acryloyl]-4-[3-(1,1-dioxo-thiomorpholin-4-yl)-propyl]-[1,4]diazepan-5-one] | 6.21
21 | CC(C)N1CCN(CC(O)CN2CCN(C(=O)/C=C/c3ccc(Cl)c(Cl)c3)CCC2=O)CC1C (racemic) [Example 301] | 6.01
22 | N#CC1(c2ccccc2)CCN(CCN2CCN(C(=O)/C=C/c3ccc(Cl)c(Cl)c3)CCC2=O)CC1 [Example 101, 1-(-3-{4-[(E)-3-(3,4-Dichloro-phenyl)-acryloyl]-7-oxo-[1,4]diazepan-1-yl}-ethyl)-4-phenyl-piperidine-4-carbonitrile] | 5.91

Further compounds by rising pIC50, results first:

Row | pIC50 | Compound
23 | 6.56 | CC1CCCCN1CC(O)CCN1CCN(C(=O)/C=C/c2ccc(Cl)c(Cl)c2)CCC1=O (racemic) [Example 375]
24 | 6.58 | COC1CCCN(CCCN2CCN(C(=O)/C=C/c3ccc(Cl)c(Cl)c3)CCC2=O)C1 (racemic) [Example 80, (+/−)-1-[(E)-3-(3,4-Dichloro-phenyl)-acryloyl]-4-[3-(3-methoxy-piperidin-1-yl)-propyl]-[1,4]diazepan-5-one]
25 | 6.61 | O=C(/C=C/c1cccc(Cl)c1)N1CCC(=O)N(CCN2CCC(c3c[nH]c4cc(F)ccc34)CC2)CC1 [Example 27, 1-[(E)-3-(3-Chloro-phenyl)-acryloyl]-4-{3-[4-(6-fluoro-1H-indol-3-yl)-piperidin-1-yl]-ethyl}-[1,4]diazepan-5-one]
26 | 6.65 | CC1(C)CN(CCCCN2CCN(C(=O)/C=C/c3ccc(Cl)c(Cl)c3)CCC2=O)CCC1O (racemic) [Example 464]
27 | 6.67 | O=C(/C=C/c1ccc(Cl)c(Cl)c1)N1CCC(=O)N(CC(O)CN2CCCCC2)CC1 (racemic) [Example 166, (rac)-1-[(E)-3-(3,4-Dichloro-phenyl)-acryloyl]-4-(2-hydroxy-3-piperidin-1-yl-propyl)-[1,4]diazepan-5-one]
28 | 6.75 | COCC1CCN(CC(O)CCN2CCN(C(=O)/C=C/c3ccc(Cl)c(Cl)c3)CCC2=O)CC1 (racemic) [Example 360]
29 | 6.84 | O=C(/C=C/c1ccc(Cl)c(Cl)c1)N1CCC(=O)N(CCCN2CCC(O)(c3cccnc3)CC2)CC1 [Example 70, 1-[(E)-3-(3,4-Dichloro-phenyl)-acryloyl]-4-[3-(4′-hydroxy-3′,4′,5′,6′-tetrahydro-2′H-[3,4′]bipyridinyl-1′-yl)-propyl]-[1,4]diazepan-5-one]
30 | 7.07 | COC(=O)N(C)C1CCN(CCCCN2CCN(C(=O)/C=C/c3ccc(Cl)c(Cl)c3)CCC2=O)CC1 [Example 442]
31 | 7.29 | C[C@@H]1C[C@H](O)CN(C[C@H](O)CCN2CCN(C(=O)/C=C/c3ccc(Cl)c(Cl)c3)CCC2=O)C1 [Example 503]
32 | 7.35 | C[C@]1(CO)CCN(CCCN2CCN(C(=O)/C=C/c3ccc(F)c(Cl)c3)CCC2=O)C[C@H]1O (racemic) [Example 219]
33 | 7.49 | COCC1CCN(CCCCN2CCN(C(=O)/C=C/c3ccc(Cl)c(Cl)c3)CCC2=O)CC1 [Example 444, 1-[(E)-3-(3,4-Dichloro-phenyl)-acryloyl]-4-[4-(4-methoxymethyl-3-piperidin-1-yl)-butyl]-[1,4]diazepan-5-one]
34 | 7.82 | O=C(/C=C/c1ccc(Cl)c(F)c1)N1CCC(=O)N(CCCN2CCC3(CC3)C(O)C2)CC1 (stereo not drawn) [Example 493, 1-[(E)-3-(4-Chloro-3-fluoro-phenyl)-acryloyl]-4-[3-((+)-4-hydroxy-6-aza-spiro[2.5]oct-6-yl)-propyl]-[1,4]diazepan-5-one]
35 | 7.85 | CC1CC(O)CN(CCCN2CCN(C(=O)C=Cc3ccc(F)c(Cl)c3)CCC2=O)C1 (mixture of isomers) [Example 224, (rac,cis)-1-[(E)-3-(3-Chloro-4-fluoro-phenyl)-acryloyl]-4-[3-(3-hydroxy-5-methyl-piperidin-1-yl)-propyl]-[1,4]diazepan-5-one]
36 | 8.22 | O=C(/C=C/c1ccc(Cl)c(F)c1)N1CCC(=O)N(CCCN2CCC3(CC3)C(O)C2)CC1 (stereo not drawn) [Example 494, 1-[(E)-3-(4-Chloro-3-fluoro-phenyl)-acryloyl]-4-[3-((−)-4-hydroxy-6-aza-spiro[2.5]oct-6-yl)-propyl]-[1,4]diazepan-5-one]
37 | 8.40 | O=C(/C=C/c1ccc(Cl)c(Cl)c1)N1CCC(=O)N(CCCN2CCC3(CC3)C(O)C2)CC1 (stereo not shown) [Example 262]
